The source made the active and inactive calls. The calls are words filed in the database; no cut-off is given here.
Assays:
[1] = test system: SMA-560; assay: Induction of apoptosis in mouse SMA-560 cells assessed as early apoptotic cells at 0.1 uM incubated for 72 hrs by Annexin V-FITC/PI staining based flow cytometric analysis (reference value: 0.0056%); format: functional
[2] = test system: SMA-497; assay: Anti-clonogenicic activity in mouse SMA-497 cells assessed as reduction in colony formation at 0.001 to 10 uM and measured after 10 days by MTT based clonogenic survival assay; format: functional, cell-based; conditions: dose 0.001-10 µM, time 10.0 day
[3] = test system: SMA-560; assay: Antitumor activity against mouse SMA-560 cells xenografted in VM/Dk mouse assessed as tumor cell proliferation at 100 mg/kg,po daily by Ki67 staining based immunohistochemistry analysis; format: functional, organism-based
[4] = test system: SMA-560; assay: Induction of apoptosis in mouse SMA-560 cells assessed as late apoptotic cells at 0.1 uM incubated for 72 hrs by Annexin V-FITC/PI staining based flow cytometric analysis (reference value: 1.83%); format: functional
[5] = molecular target: T1, Angiopoietin-1 receptor (Homo sapiens, UniProt Q02763); assay: Inhibition of TIE2 autophosphorylation in human HUVEC cells by Western blot analysis; format: cell-based
[6] = test system: SMA-560; assay: Antitumor activity against mouse SMA-560 cells xenografted in VM/Dk mouse assessed as decrease in tumor volume at 100 mg/kg,po daily with 12 Gy irradition after 2days of treatment initiation by H and E staining based microscopy; format: functional, organism-based
[7] = test system: SMA-540; assay: Cytotoxicity against mouse SMA-540 cells assessed as reduction in metabolic activity at 0.001 to 100 uM incubated for 72 hrs by MTT assay; format: functional, cell-based; conditions: dose 0.001-100 µM
[8] = test system: SMA-497; assay: Anti-clonogenicic activity in mouse SMA-497 cells assessed as reduction in colony formation at 0.1 to 1 uM preincubated for 6 hrs followed by temozolomide addition and measured after 10 days by MTT based clonogenic survival assay; format: functional, cell-based; conditions: dose 0.1-1 µM, time 246.0 hrs
[9] = test system: SMA-497; assay: Antitumor activity against mouse SMA-497 cells xenografted in VM/Dk mouse assessed as increase in number of tumor-infiltrating CD11b positive monocytes/microglia in tumor at 100 mg/kg,po daily with 12 Gy irradition after 2days of treatment initiation by immunohistochemistry analysis; format: functional, organism-based
[10] = test system: Mus musculus; assay: In vivo inhibition of Angiopoietin-1 stimulated TIE2 autophosphorylation in lungs of CB17/scid mouse at 25 to 100 mg/kg,po for 3 hrs with angiopoietin-1 stimulation during last 15 mins treatment by immunoblot analysis; format: functional, organism-based; conditions: Lung, dose 25-100 mg/kg
[11] = test system: SMA-560; assay: Induction of cell cycle arrest in mouse SMA-560 cells assessed as accumulation at G2/M phase at 0.1 uM incubated for 72 hrs by propidium iodide/RNase staining based flow cytomtery (Rvb= 25%); format: functional
[12] = test system: SMA-497; assay: Antitumor activity against mouse SMA-497 cells xenografted in VM/Dk mouse assessed as tumor cell proliferation at 100 mg/kg,po daily by Ki67 staining based immunohistochemistry analysis; format: functional, organism-based
[13] = molecular target: T1, Angiopoietin-1 receptor; assay: Binding affinity to TIE2 (unknown origin) assessed as dissociation constant by KINOME scan assay
[14] = test system: SMA-560; assay: Induction of cell cycle arrest in mouse SMA-560 cells assessed as accumulation at G0/G1 phase at 0.1 uM incubated for 72 hrs by propidium iodide/RNase staining based flow cytomtery (Rvb= 71%); format: functional
[15] = test system: SMA-540; assay: Anti-clonogenicic activity in mouse SMA-540 cells assessed as reduction in colony formation at 0.001 to 10 uM and measured after 10 days by MTT based clonogenic survival assay; format: functional, cell-based; conditions: dose 0.001-10 µM, time 10.0 day
[16] = test system: SMA-497; assay: Antitumor activity against mouse SMA-497 cells xenografted in VM/Dk mouse assessed as decrease in tumor cell proliferation at 100 mg/kg,po daily with 12 Gy irradition after 2days of treatment initiation by Ki67 staining based immunohistochemistry analysis; format: functional, organism-based
[17] = test system: SMA-497; assay: Induction of apoptosis in mouse SMA-497 cells assessed as necrotic cells at 0.1 uM incubated for 72 hrs by Annexin V-FITC/PI staining based flow cytometric analysis (reference value: 14.7%); format: functional
[18] = test system: SMA-540; assay: Antitumor activity against mouse SMA-540 cells xenografted in VM/Dk mouse assessed as tumor cell proliferation at 100 mg/kg,po daily by Ki67 staining based immunohistochemistry analysis; format: functional, organism-based
[19] = test system: SMA-560; assay: Antitumor activity against mouse SMA-560 cells xenografted in VM/Dk mouse assessed as decrease in number of CD31-positive intra-tumoral vessels in tumor at 100 mg/kg,po daily with 12 Gy irradition after 2days of treatment initiation by immunohistochemistry analysis; format: functional, organism-based
[20] = test system: SMA-560; assay: Antitumor activity against mouse SMA-560 cells xenografted in VM/Dk mouse assessed as decrease in tumor volume at 100 mg/kg,po daily by H and E staining based microscopy; format: functional, organism-based
[21] = test system: SMA-560; assay: Induction of apoptosis in mouse SMA-560 cells assessed as necrotic cells at 0.1 uM incubated for 72 hrs by Annexin V-FITC/PI staining based flow cytometric analysis (reference value: 13.5%); format: functional
[22] = test system: SMA-560; assay: Anti-clonogenicic activity in mouse SMA-560 cells assessed as reduction in colony formation at 0.1 to 1 uM preincubated for 6 hrs followed by temozolomide addition and measured after 10 days by MTT based clonogenic survival assay; format: functional, cell-based; conditions: dose 0.1-1 µM, time 246.0 hrs
[23] = test system: GL261; assay: Antitumor activity against mouse GL261 cells xenografted in C57Bl/6 mouse assessed as tumor cell proliferation at 100 mg/kg,po daily by Ki67 staining based immunohistochemistry analysis; format: functional, organism-based
[24] = test system: GL261; assay: Antitumor activity against mouse GL261 cells xenografted in C57Bl/6 mouse assessed as decrease in tumor volume at 100 mg/kg,po daily by H and E staining based microscopy; format: functional, organism-based
[25] = test system: SMA-560; assay: Antitumor activity against mouse SMA-560 cells xenografted in VM/Dk mouse assessed as decrease in tumor cell proliferation at 100 mg/kg,po daily with 12 Gy irradition after 2days of treatment initiation by Ki67 staining based immunohistochemistry analysis; format: functional, organism-based
[26] = test system: SMA-560; assay: In vivo inhibition of TIE-2 in VM/Dk mouse xenografted with mouse SMA-560 cells assessed as decrease in TIE-2 expression in brain blood vessels at 100 mg/kg,po daily by immunohistochemistry analysis; format: functional, organism-based
[27] = test system: GL261; assay: In vivo inhibition of TIE-2 in C57Bl/6 mouse xenografted with mouse GL261 cells assessed as decrease in TIE-2 expression in brain blood vessels at 100 mg/kg,po daily by immunohistochemistry analysis; format: functional, organism-based
[28] = test system: GL261; assay: Cytotoxicity against mouse GL261 cells assessed as reduction in metabolic activity at 0.001 to 100 uM incubated for 72 hrs by MTT assay; format: functional, cell-based; conditions: dose 0.001-100 µM
[29] = test system: GL261; assay: Antitumor activity against mouse GL261 cells xenografted in C57Bl/6 mouse assessed as decrease in number of CD31-positive intra-tumoral vessels in tumor at 100 mg/kg,po daily by immunohistochemistry analysis; format: functional, organism-based
[30] = test system: SMA-497; assay: Induction of cell cycle arrest in mouse SMA-497 cells assessed as accumulation at sub G1 phase at 0.1 uM incubated for 72 hrs by propidium iodide/RNase staining based flow cytomtery (Rvb= 2%); format: functional
[31] = test system: SMA-560; assay: Induction of apoptosis in mouse SMA-560 cells assessed as live cells at 0.1 uM incubated for 72 hrs by Annexin V-FITC/PI staining based flow cytometric analysis (reference value: 84.6%); format: functional

T1 sequence (Q02763 whole entry): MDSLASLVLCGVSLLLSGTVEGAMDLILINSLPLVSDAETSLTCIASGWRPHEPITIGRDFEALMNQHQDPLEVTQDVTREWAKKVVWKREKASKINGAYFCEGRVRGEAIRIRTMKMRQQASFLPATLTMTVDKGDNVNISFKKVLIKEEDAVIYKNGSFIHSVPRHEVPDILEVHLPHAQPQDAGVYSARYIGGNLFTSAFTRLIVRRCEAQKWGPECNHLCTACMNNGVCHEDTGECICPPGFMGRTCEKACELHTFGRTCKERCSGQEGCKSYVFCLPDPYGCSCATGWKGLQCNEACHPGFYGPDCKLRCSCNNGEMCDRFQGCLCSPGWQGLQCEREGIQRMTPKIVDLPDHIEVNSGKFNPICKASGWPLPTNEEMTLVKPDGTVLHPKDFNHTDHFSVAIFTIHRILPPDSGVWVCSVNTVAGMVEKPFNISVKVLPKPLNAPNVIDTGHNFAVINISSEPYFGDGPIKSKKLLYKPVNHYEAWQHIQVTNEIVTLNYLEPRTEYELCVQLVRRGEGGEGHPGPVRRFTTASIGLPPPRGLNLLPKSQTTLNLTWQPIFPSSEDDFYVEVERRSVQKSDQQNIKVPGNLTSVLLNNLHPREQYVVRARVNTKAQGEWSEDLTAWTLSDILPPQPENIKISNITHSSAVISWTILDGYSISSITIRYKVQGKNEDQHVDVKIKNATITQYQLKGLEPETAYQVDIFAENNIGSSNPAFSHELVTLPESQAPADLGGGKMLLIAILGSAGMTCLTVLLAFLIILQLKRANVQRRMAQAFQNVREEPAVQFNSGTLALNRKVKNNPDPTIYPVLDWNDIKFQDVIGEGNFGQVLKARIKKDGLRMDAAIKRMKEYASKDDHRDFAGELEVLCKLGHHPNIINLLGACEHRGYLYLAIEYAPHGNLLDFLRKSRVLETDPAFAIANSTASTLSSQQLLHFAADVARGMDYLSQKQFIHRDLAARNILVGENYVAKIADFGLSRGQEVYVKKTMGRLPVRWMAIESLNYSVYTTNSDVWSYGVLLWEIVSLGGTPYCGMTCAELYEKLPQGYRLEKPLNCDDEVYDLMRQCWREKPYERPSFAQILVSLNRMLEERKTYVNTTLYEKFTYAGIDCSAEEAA

With `Cc1cc(C)c(-n2ccn3nc(-c4cccnc4)cc23)cc1NC(=O)c1cc(C#N)cc(S(F)(F)(F)(F)F)c1` [BAY-826] the Activity [1] was 0%, the Activity [2] was “inactive” and the Activity [3] was “inactive”. For the same compound, the Activity [4] was 0.66%, the EC50 [5] was 1.3 nM and the Activity [6] was “Active”. For the same compound, the Activity [7] was “inactive”, the Activity [8] was “inactive” and the Activity [9] was “Active”. For the same compound, the inhibition [10] was “Active”, the Activity [11] was 28% and the Activity [12] was “inactive”. For the same compound, the Kd [13] was 1.6 nM, the Activity [14] was 67% and the Activity [15] was “inactive”. For the same compound, the Activity [16] was “Active”, the Activity [17] was 18.3% and the Activity [18] was “inactive”. For the same compound, the Activity [19] was “Active”, the Activity [20] was “inactive” and the Activity [21] was 8.81%. The Activity [22] was “inactive”, the Activity [23] was “inactive” and the Activity [24] was “inactive”. The Activity [25] was “inactive”, the inhibition [26] was “Active” and the inhibition [27] was “Active”. For the same compound, the Activity [28] was “inactive”, the Activity [29] was “Active” and the Activity [30] was 4%. The Activity [31] was 90.5%.

Source: ChEMBL document CHEMBL5653627 (J Neurochem, 2017)
